According to ChEMBL document CHEMBL3885881, “DrugMatrix”:

Species: Rattus norvegicus
Experiment: DrugMatrix - Regimen: Daily Repeat
Format: toxicity, organism-based, Sprague-Dawley
Set-up: regimen Daily Repeat, gender Male, age 6-8 weeks
Settings: in vivo, iv, vehicle 100 % SALINE; for URIC ACID / ALANINE AMINOTRANSFERASE / ALBUMIN / ALKALINE PHOSPHATASE / ASPARTATE AMINOTRANSFERASE / BLOOD UREA NITROGEN / CARBON DIOXIDE / CHLORIDE / CHOLESTEROL / CREATINE PHOSPHOKINASE / CREATININE / GLUCOSE / LACTATE DEHYDROGENASE / LIPASE / PHOSPHORUS / POTASSIUM / SODIUM / TOTAL BILIRUBIN / TOTAL PROTEIN: tissue Plasma; for ABSOLUTE BASOPHIL / ABSOLUTE EOSINOPHIL / ABSOLUTE LYMPHOCYTE / ABSOLUTE MONOCYTE / ABSOLUTE SEGMENTED NEUTROPHIL / BASOPHIL / EOSINOPHIL / ERYTHROCYTE COUNT / HEMATOCRIT / HEMOGLOBIN / LEUKOCYTE COUNT / LYMPHOCYTE / MEAN CORPUSCULAR HEMOGLOBIN / MEAN CORPUSCULAR HEMOGLOBIN CONCENTRATION / MEAN CORPUSCULAR VOLUME / MONOCYTE / NEUTROPHIL / NUCLEATED RED BLOOD CELLS / PLATELET COUNT: tissue Blood
[1] = 2 mg/kg, 120 h, dose level Low, time 5 day
[2] = 44 mg/kg, 72 h, dose level High, time 3 day
[3] = 44 mg/kg, 120 h, dose level High, time 5 day

Cc1ccc(N(CC2=NCCN2)c2cccc(O)c2)cc1 [PHENTOLAMINE]
URIC ACID (2 mg/kg, 72 h, dose level Low, time 3 day): 1.4 mg/dL | ABSOLUTE BASOPHIL [1]: 0 CELLS/uL | ABSOLUTE EOSINOPHIL [1]: 0 CELLS/uL | ABSOLUTE LYMPHOCYTE [1]: 13096 CELLS/uL | ABSOLUTE MONOCYTE [1]: 288 CELLS/uL | ABSOLUTE SEGMENTED NEUTROPHIL [1]: 1016 CELLS/uL | BASOPHIL [1]: 0% | EOSINOPHIL [1]: 0% | ERYTHROCYTE COUNT [1]: 6.03 x10E6/uL | HEMATOCRIT [1]: 38.17% | HEMOGLOBIN [1]: 14.2 G/DL | LEUKOCYTE COUNT [1]: 14.4 x10E3/uL | LYMPHOCYTE [1]: 91% | MEAN CORPUSCULAR HEMOGLOBIN [1]: 23.53 pg | MEAN CORPUSCULAR HEMOGLOBIN CONCENTRATION [1]: 37.2 G/DL | MEAN CORPUSCULAR VOLUME [1]: 63.3 fL | MONOCYTE [1]: 2% | NEUTROPHIL [1]: 7% | NUCLEATED RED BLOOD CELLS [1]: 0.67 /100WBC | PLATELET COUNT [1]: 1406 x10E3/uL | ALANINE AMINOTRANSFERASE [1]: 51.67 u/L | ALBUMIN [1]: 4.47 G/DL | ALKALINE PHOSPHATASE [1]: 440 u/L | ASPARTATE AMINOTRANSFERASE [1]: 80 u/L | BLOOD UREA NITROGEN [1]: 16.67 mg/dL | CARBON DIOXIDE [1]: 20.33 mmol/L | CHLORIDE [1]: 102.67 MEQ/L | CHOLESTEROL [1]: 64.33 mg/dL | CREATINE PHOSPHOKINASE [1]: 255.33 u/L | CREATININE [1]: 0.17 mg/dL | GLUCOSE [1]: 170.33 mg/dL | LACTATE DEHYDROGENASE [1]: 112.33 u/L | LIPASE [1]: 10 u/L | PHOSPHORUS [1]: 12.37 mg/dL | POTASSIUM [1]: 6.89 MEQ/L | SODIUM [1]: 145.97 MEQ/L | TOTAL BILIRUBIN [1]: 0.23 mg/dL | URIC ACID [1]: 1.8 mg/dL | ABSOLUTE BASOPHIL [2]: 0 CELLS/uL | ABSOLUTE EOSINOPHIL [2]: 0 CELLS/uL | ABSOLUTE LYMPHOCYTE [2]: 13788 CELLS/uL | ABSOLUTE MONOCYTE [2]: 136.33 CELLS/uL | ABSOLUTE SEGMENTED NEUTROPHIL [2]: 1109 CELLS/uL | BASOPHIL [2]: 0% | EOSINOPHIL [2]: 0% | ERYTHROCYTE COUNT [2]: 5.51 x10E6/uL | HEMATOCRIT [2]: 35.77% | HEMOGLOBIN [2]: 13.13 G/DL | LEUKOCYTE COUNT [2]: 15.03 x10E3/uL | LYMPHOCYTE [2]: 91.33% | MEAN CORPUSCULAR HEMOGLOBIN [2]: 23.9 pg | MEAN CORPUSCULAR HEMOGLOBIN CONCENTRATION [2]: 36.73 G/DL | MEAN CORPUSCULAR VOLUME [2]: 65 fL | MONOCYTE [2]: 1% | NEUTROPHIL [2]: 7.67% | NUCLEATED RED BLOOD CELLS [2]: 0.67 /100WBC | PLATELET COUNT [2]: 1392 x10E3/uL | ALANINE AMINOTRANSFERASE [2]: 54.67 u/L | ALBUMIN [2]: 4.3 G/DL | ALKALINE PHOSPHATASE [2]: 373 u/L | ASPARTATE AMINOTRANSFERASE [2]: 66.67 u/L | BLOOD UREA NITROGEN [2]: 17.33 mg/dL | CARBON DIOXIDE [2]: 20.33 mmol/L | CHLORIDE [2]: 100.67 MEQ/L | CHOLESTEROL [2]: 81.33 mg/dL | CREATINE PHOSPHOKINASE [2]: 188.33 u/L | CREATININE [2]: 0.22 mg/dL | GLUCOSE [2]: 163.67 mg/dL | LACTATE DEHYDROGENASE [2]: 78 u/L | LIPASE [2]: 10.67 u/L | PHOSPHORUS [2]: 10.77 mg/dL | POTASSIUM [2]: 6.6 MEQ/L | SODIUM [2]: 143.67 MEQ/L | TOTAL BILIRUBIN [2]: 0.23 mg/dL | TOTAL PROTEIN [2]: 6.03 G/DL | URIC ACID [2]: 1.53 mg/dL | ABSOLUTE BASOPHIL [3]: 0 CELLS/uL | ABSOLUTE EOSINOPHIL [3]: 0 CELLS/uL | ABSOLUTE LYMPHOCYTE [3]: 13982.67 CELLS/uL | ABSOLUTE MONOCYTE [3]: 349.33 CELLS/uL | ABSOLUTE SEGMENTED NEUTROPHIL [3]: 3068 CELLS/uL | BASOPHIL [3]: 0% | EOSINOPHIL [3]: 0% | ERYTHROCYTE COUNT [3]: 5.76 x10E6/uL | HEMATOCRIT [3]: 36.83% | HEMOGLOBIN [3]: 13.87 G/DL | LEUKOCYTE COUNT [3]: 17.4 x10E3/uL | LYMPHOCYTE [3]: 81.33% | MEAN CORPUSCULAR HEMOGLOBIN [3]: 24.1 pg | MEAN CORPUSCULAR HEMOGLOBIN CONCENTRATION [3]: 37.67 G/DL | MEAN CORPUSCULAR VOLUME [3]: 64.07 fL | MONOCYTE [3]: 2% | NEUTROPHIL [3]: 16.67% | NUCLEATED RED BLOOD CELLS [3]: 0 /100WBC | PLATELET COUNT [3]: 1344.67 x10E3/uL | ALANINE AMINOTRANSFERASE [3]: 54.67 u/L | ALBUMIN [3]: 4.33 G/DL | ALKALINE PHOSPHATASE [3]: 353 u/L | ASPARTATE AMINOTRANSFERASE [3]: 75.67 u/L | BLOOD UREA NITROGEN [3]: 16.33 mg/dL | CARBON DIOXIDE [3]: 29.33 mmol/L | CHLORIDE [3]: 103.33 MEQ/L | CHOLESTEROL [3]: 81 mg/dL | CREATINE PHOSPHOKINASE [3]: 410.67 u/L | CREATININE [3]: 0.19 mg/dL | GLUCOSE [3]: 200.33 mg/dL | LACTATE DEHYDROGENASE [3]: 220.67 u/L | LIPASE [3]: 11 u/L | PHOSPHORUS [3]: 11.43 mg/dL | POTASSIUM [3]: 6.26 MEQ/L | SODIUM [3]: 144.07 MEQ/L | TOTAL BILIRUBIN [3]: 0.17 mg/dL | TOTAL PROTEIN [3]: 6.43 G/DL | URIC ACID [3]: 2.13 mg/dL
